Assays:
human recombinant MMP-2 = biological target: T1, human recombinant MMP-2 (Homo sapiens, UniProt P08253); assay: Measurement of the activity of metalloproteinase MMP-2 (DQ-gelatin fluorescence); type: biochemical; details: incubation concentration 0.0018 % DE; relative to the control
T1 construct: purchased CALBIOCHEM PF023
T1 sequence (P08253 110-660): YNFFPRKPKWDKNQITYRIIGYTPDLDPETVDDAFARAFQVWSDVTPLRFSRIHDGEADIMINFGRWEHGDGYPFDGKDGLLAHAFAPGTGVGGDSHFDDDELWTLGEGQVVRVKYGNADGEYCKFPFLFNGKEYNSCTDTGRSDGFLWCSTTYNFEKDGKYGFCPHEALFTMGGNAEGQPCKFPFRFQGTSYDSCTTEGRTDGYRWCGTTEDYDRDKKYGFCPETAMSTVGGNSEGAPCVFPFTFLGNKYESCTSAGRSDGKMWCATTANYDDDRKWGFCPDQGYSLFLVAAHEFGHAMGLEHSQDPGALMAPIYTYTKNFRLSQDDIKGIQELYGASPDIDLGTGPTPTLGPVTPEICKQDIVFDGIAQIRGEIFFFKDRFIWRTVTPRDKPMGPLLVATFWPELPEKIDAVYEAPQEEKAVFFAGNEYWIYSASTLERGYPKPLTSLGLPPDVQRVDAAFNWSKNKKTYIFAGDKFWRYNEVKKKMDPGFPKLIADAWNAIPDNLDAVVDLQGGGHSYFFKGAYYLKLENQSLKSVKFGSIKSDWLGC
Protocol: (§1) The objective of this test is to evaluate the inhibitory capacity of a product on the enzymatic activity of MMP-2 and MMP-9. This test is based on an enzymatic reaction between purified MMP-2 or MMP-9 and a specific substrate containing a chromophore. The degradation of the chromogenic substrate by the enzyme leads to the production of fluorescence monitored by fluorimetry.
(§2) (ii)—A human recombinant MMP-2 (CALBIOCHEM, PF023) is incubated, at 0.1 μg/ml, in the presence of the product and the chromogenic substrate, DQ-gelatin conjugated with fluorescein (MOLECULAR PROBE, D12054) at 10 μg/ml. The reaction mixture is incubated overnight at room temperature, protected from light. The quantity of DQ-gelatin degraded is measured by fluorescence (Ex: 355 nm; Em: 460 nm).
(§3) The reactivity of the enzymatic system is systematically monitored for the measurement of the effect of a metalloproteinase inhibitor, 1,10-phenanthroline. The results are presented in the following table, as a percentage inhibition of the enzymatic activity of MMP-2 and MMP-9 relative to the control.

human recombinant MMP-9 = biological target: T2, human recombinant MMP-9 (Homo sapiens, UniProt P14780); assay: Measurement of the activity of metalloproteinase MMP-9 (DQ-gelatin fluorescence); type: biochemical; details: incubation concentration 0.0018 % DE; relative to the control
T2 construct: purchased CALBIOCHEM PF024
T2 sequence (P14780 107-707 limits assumed): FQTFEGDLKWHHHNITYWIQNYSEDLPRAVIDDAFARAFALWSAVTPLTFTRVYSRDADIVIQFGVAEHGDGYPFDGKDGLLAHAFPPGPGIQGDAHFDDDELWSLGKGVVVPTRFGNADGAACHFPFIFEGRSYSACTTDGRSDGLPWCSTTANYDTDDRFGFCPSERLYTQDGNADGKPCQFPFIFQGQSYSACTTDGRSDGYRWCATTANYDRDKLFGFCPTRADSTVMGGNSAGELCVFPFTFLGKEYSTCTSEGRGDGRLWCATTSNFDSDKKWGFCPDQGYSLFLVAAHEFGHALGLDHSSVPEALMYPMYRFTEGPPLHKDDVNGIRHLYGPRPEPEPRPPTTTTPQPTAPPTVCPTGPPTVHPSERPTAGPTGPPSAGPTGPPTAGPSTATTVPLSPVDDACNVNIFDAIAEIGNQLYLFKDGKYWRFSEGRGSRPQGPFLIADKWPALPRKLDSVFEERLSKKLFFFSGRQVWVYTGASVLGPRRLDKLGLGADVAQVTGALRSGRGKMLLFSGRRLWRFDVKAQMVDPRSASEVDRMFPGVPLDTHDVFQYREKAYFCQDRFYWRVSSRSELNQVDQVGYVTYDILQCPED
Protocol: as §1
as §2, with “(i)—A” for “(ii)—A”, “MMP-9” for “MMP-2”, “PF024)” for “PF023)”, “0.05” for “0.1”
as §3

α2-adrenergic receptors = biological target: T3, α2-adrenergic receptors (Homo sapiens, UniProt P08913); assay: Involvement of α2-adrenergic receptors in lipolytic activity: fatty acid assay in human adipocytes with brimonidine; type: cell-based
T3 construct: adrenergic receptors found at the surface of the adipocytes; endogenous in cells; host or cells: human adipocytes from subcutaneous abdominal adipose tissue of women
T3 sequence (P08913 1-465): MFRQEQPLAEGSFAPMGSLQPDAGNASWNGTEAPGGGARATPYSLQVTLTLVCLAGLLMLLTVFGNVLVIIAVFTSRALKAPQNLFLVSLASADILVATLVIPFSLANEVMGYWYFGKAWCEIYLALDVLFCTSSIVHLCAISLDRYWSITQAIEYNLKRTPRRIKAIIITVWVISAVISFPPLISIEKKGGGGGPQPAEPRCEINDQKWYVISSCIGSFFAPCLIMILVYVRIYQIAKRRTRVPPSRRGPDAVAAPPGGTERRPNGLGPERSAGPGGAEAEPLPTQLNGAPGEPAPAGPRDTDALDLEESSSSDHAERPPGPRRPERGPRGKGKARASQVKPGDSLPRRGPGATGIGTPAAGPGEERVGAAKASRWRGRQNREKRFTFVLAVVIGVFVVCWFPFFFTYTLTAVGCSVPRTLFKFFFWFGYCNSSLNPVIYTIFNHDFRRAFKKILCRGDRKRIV
From the text: It involves determining, in an “in vitro” model of isolated human adipocytes, the involvement of the α2- and/or β-adrenergic receptors on the lipolytic activity of the test product. Lipolysis is indeed under the control of the adrenergic receptors found at the surface of the adipocytes. Two types of receptors coexist:
A lipolytic product can call into play these receptors either by stimulating the β-adrenergic receptors (agonist), or by inhibiting the α2-adrenergic receptors (antagonist). The method described consists in incubating the product in the presence of human adipocytes in suspension, followed by the measurement of the lipolytic activity by assaying fatty acids. The adipocytes are incubated in the presence of pharmacological agents, α2-adrenergic agonists or β-adrenergic antagonists, known to inhibit lipolysis. The trial consists in studying the effect of the product on the inhibition of lipolysis induced by these pharmacological agents.
The test is carried out using human adipocytes isolated and prepared as a cellular suspension. The adipocytes are isolated from the subcutaneous abdominal adipose tissue recovered during plastic surgery operations (abdominal plastic surgery operations) performed on women. The cells are isolated from fresh tissue. To isolate the cells, the adipose tissue is isolated and dissociated by the action of a collagenase (SIGMA™, 1 mg/ml, 30 minutes at 37° C., gentle stirring). Collagenase digests the connective tissue present in the adipose tissue. […]
The product is incubated with the cells in suspension for two hours at 37° C. (250 μl of product+250 μl of adipocyte suspension). in the presence of an α2-adrenergic agonist: brimonidine at 10^−9 M (concentration previously determined to inhibit basal lipolysis by about 50%), and The supernatant media are collected. […]

[1] = biological target: T4, hyaluronidase (SIGMA), purified from bovine testicles (Bos taurus, UniProt Q2YDK3); assay: Measurement of the activity of hyaluronidase (purified enzyme); type: biochemical; details: hyaluronidase test, 60 minutes at 37° C.
T4 construct: purified from bovine testicles; purchased SIGMA; host or cells: bovine testicles
T4 sequence (Q2YDK3 36-553): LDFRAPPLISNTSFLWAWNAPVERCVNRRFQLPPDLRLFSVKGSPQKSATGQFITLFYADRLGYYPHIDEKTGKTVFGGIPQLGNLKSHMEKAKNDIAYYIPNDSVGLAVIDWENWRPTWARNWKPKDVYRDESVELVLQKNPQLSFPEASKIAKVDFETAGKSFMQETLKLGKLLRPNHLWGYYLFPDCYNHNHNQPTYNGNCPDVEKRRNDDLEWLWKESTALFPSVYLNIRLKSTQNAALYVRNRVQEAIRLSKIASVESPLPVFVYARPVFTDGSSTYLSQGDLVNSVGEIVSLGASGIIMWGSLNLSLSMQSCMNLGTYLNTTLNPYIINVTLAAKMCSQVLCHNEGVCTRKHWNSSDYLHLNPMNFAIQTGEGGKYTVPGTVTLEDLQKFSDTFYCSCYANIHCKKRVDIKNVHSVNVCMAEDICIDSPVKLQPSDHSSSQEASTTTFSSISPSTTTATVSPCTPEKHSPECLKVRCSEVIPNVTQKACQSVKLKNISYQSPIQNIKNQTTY
Protocol: The objective of this test is to measure the activity of hyaluronidase. This enzyme, which is naturally found in the skin, degrades hyaluronic acid. The study is carried out in vitro on the purified enzyme.
The hyaluronidase (SIGMA), purified from bovine testicles, is incubated at 0.01 U/ml in the presence of hyaluronic acid at 0.02 mg/ml, with or without test product. The incubation is carried out for 60 minutes at 37° C.
Evaluation of the effects: After the incubation, the hyaluronic acid not degraded by the enzyme is precipitated by a 24 mM sodium acetate/79. mM acetic acid mixture (10 minutes, room temperature). The precipitate is measured by spectrophotometry at 590 nm.
The effect of the test products is compared to that observed in the presence of dipotassium glycyrrhizinate, a reference hyaluronidase inhibitor.

β-adrenergic receptors = assay: Involvement of β-adrenergic receptors in lipolytic activity: fatty acid assay in human adipocytes with propranolol; type: cell-based
Protocol: The supernatant media are collected. The nonesterified fatty acids are assayed by spectrophotometry with the aid of a commercial kit in these supernatant media (NEFA C kit, WAKO). The assay is performed against a fatty acid calibration series.
for the inhibition induced by the β-adrenergic antagonist, by the use of a β-adrenergic agonist, isoprenaline.

human adipocytes = assay: Assay of the free fatty acids (lipolytic activity) in isolated human adipocytes in suspension; type: cell-based; details: for Free fatty acid concentration: 2 h at 37° C., mean of five assays
From the text: Hydrolysis of the triglycerides to nonesterified fatty acids and glycerol is called lipolysis. Triglycerides are stored in the adipocytes and constitute the fat reserve. For this reserve to diminish, which is the desired aim when slimming products are used, the triglycerides should be hydrolysed in the form of fatty acids, which in their case can be removed from the cell. Hydrolysis of the triglycerides calls into play a hormone-dependent lipase which must be phosphorylated in order to be active. The phosphorylation step uses a kinase and cAMP. An increase in the cAMP content of the adipocytes is necessary for promoting the activity of the lipase and therefore the lipolysis. The method described consists in incubating the products in the presence of human adipocytes in suspension, followed by […].
The test is carried out using human adipocytes isolated and prepared as a cellular suspension. The adipocytes are isolated from the subcutaneous abdominal adipose tissue recovered during plastic surgery operations (abdominal plastic surgery operations) performed on women. The cells are isolated from fresh tissue. The adipose tissue is isolated and dissociated by the action of a collagenase (SIGMA™, 1 mg/ml, 30 minutes at 37° C., gentle stirring). Collagenase digests the connective tissue present in the adipose tissue. After digestion, the cells are filtered and washed in an appropriate culture medium containing MEM medium free of phenol red, free of glutamine (SIGMA)+2.2 mg/ml of sodium bicarbonate (GIBCO)+50 IU of penicillin (BIOWHITTAKER™)+50 μg/ml of streptomycin (BIOWHITTAKER™)+1% (v/v) of L-glutamine (BIOWHITTAKER™)+0.5% of lipid-free serum albumin (SIGMA™). The adipocyte suspension is used immediately after its preparation.
The test products are diluted in the adipocyte culture medium. They are incubated with the cells in suspension for two hours at 37° C. (250 μl of product+250 μl of adipocyte suspension).
After the incubation, the cell lysis is checked visually by the presence of a lipid layer at the surface of the cellular suspension. The supernatant media are collected. The free fatty acids are assayed by spectrophotometry using a commercial kit (NEFA™ C kit, WAKO), with reference to a fatty acid calibration series. The lypolytic activity of the products is evaluated relative to a control group incubated in the presence of adipocytes and in the absence of product. […] Five assays are performed for each of the test products which are as follows:
This assay is repeated by carrying out new assays at different concentrations.

[2] = incubation concentration 0.0001 wt % DE
[3] = incubation concentration 0.0010 wt % DE

c1cnc2c(c1)ccc1cccnc12 [1,10-Phenanthroline, 1,10-phenanthroline]
MMP-2 inhibiting effect (human recombinant MMP-2): 25%
MMP-9 inhibiting effect (human recombinant MMP-9): 75%

Brc1c(NC2=NCCN2)ccc2nccnc12 [Brimonidine, brimonidine]
Assay of the nonesterified fatty acids in the supernatant (% relative to the control) (α2-adrenergic receptors; 10^−9 M, alone): 0%
inhibition at 0.001 µM (α2-adrenergic receptors; read-out: inhibition of basal lipolysis): ~50%

CC1(C)[C@@H](O[C@H]2O[C@H](C(=O)[O-])[C@@H](O)[C@H](O)[C@H]2O[C@@H]2O[C@H](C(=O)[O-])[C@@H](O)[C@H](O)[C@H]2O)CC[C@]2(C)[C@H]3C(=O)C=C4[C@@H]5C[C@@](C)(C(=O)O)CC[C@]5(C)CC[C@@]4(C)[C@]3(C)CC[C@@H]12.[K+].[K+] [Di K glycyrrhizinate, dipotassium glycyrrhizinate]
Percentage inhibition of hyaluronidase activity ([1]; incubation concentration 0.001 % DE): 20%
Percentage inhibition of hyaluronidase activity ([1]; incubation concentration 0.1 % DE): 45%

CC(C)NCC(O)c1ccc(O)c(O)c1 (centres unmarked) [Isoprenaline, isoprenaline]
Assay of the nonesterified fatty acids in the supernatant (% relative to the control) (β-adrenergic receptors; 10^−5 M + propanolol 10^−7 M): 170%

CCCCCCCCCCCC(=O)N(C)CC(=O)O [N-Lauroylsarcosine]
Free fatty acid concentration (human adipocytes; [2]): 26.32 ± 0.68 µM
Lipolytic activity (compared with the control = 100) (human adipocytes; [2]): 228
Free fatty acid concentration (human adipocytes; [3]): 28.82 ± 6.11 µM
Lipolytic activity (compared with the control = 100) (human adipocytes; [3]): 250

Cc1ccc(N(CC2=NCCN2)c2cccc(O)c2)cc1 [Phentolamine, phentolamine]
Assay of the nonesterified fatty acids in the supernatant (% relative to the control) (α2-adrenergic receptors; 10^−7 M + brimonidine 10^−9 M): 79%

CC(C)NCC(O)COc1cccc2ccccc12 (centres unmarked) [Propanolol, propranolol]
Assay of the nonesterified fatty acids in the supernatant (% relative to the control) (β-adrenergic receptors; 10^−7 M, alone): 86%
inhibition of basal lipolysis (β-adrenergic receptors; at 10^−7 M, concentration previously determined): about 50%

Reference: patent US20040166079A1, “N-Lauroyl amino acid composition for slimming the human body” (priority 2003, published 2004)
